# Values joined by “and” are separate entries in the source; they are usually repeats but may differ in a detail not shown here. Equal values may be shown once. “Also recorded” adds a separate entry of the source.
# Tests used:
# Solubility (2% DMSO/PBS) = format: physicochemical; details: aqueous buffer, kinetic from dmso stock
# Polθ-pol = molecular target: T1, Polθ-pol (Homo sapiens, UniProt O75417); test: Relative rate of Polθ-pol dAMP addition; format: biochemical
# T1 construct: purified recombinant human Polθ-pol (comprising amino acid residues 1792–2590); made in house
# T1 sequence (O75417 1792-2590): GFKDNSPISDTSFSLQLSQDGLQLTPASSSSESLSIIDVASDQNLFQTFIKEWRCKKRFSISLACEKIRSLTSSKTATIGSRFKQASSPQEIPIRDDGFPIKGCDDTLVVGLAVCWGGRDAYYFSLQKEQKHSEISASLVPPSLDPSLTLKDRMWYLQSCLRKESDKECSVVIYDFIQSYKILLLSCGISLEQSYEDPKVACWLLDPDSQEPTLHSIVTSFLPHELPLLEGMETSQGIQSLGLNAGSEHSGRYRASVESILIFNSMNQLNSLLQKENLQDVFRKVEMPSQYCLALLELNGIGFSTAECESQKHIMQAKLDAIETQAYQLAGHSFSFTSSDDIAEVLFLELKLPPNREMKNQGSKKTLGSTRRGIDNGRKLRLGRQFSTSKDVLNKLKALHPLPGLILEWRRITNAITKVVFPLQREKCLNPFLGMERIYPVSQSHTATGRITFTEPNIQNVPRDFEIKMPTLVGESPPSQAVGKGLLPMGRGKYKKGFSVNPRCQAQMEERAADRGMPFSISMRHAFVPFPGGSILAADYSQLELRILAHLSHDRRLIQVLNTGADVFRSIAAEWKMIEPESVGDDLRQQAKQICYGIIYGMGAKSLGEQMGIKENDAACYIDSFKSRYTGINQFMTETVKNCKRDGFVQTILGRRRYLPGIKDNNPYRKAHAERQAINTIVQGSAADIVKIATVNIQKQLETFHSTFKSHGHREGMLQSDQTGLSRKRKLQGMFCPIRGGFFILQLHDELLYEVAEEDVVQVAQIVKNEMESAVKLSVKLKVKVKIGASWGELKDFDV
# Procedure: (§1) Relative rate of Polθ-pol dAMP addition. The relative rates of dAMP incorporation by Polq-pol in the presence of DMSO or MC160385 with various concentrations of dATP were measured using the following primer extension assay in vitro. 2 nM or Polθ-pol was incubated with 5’ ^32P-γ-ATP labeled 100 nM primer-template (RP469D/RP486) in 1X buffer (25 mM TrisHCl pH 7.8, 0.01% NP40, 10% glycerol, 1 mM DTT, 10 mM MgCl2, 0.1 mg/ml BSA) at room temp. 2.5% DMSO, 7.5 nM or 12 nM of MC160385 was added. Reactions were than initiated by the addition of 20, 50, 100, 200, or 300 μM dATP at room temp. Aliquots of the reactions were removed and terminated by the addition of 50 mM EDTA at 3, 3.5, 4 and 5 min after the reaction was initiated. Radio-labeled DNA was then resolved via denaturing 20% PAGE and visualized by Typhoon PhosphorImager (GE Amersham). Rates of dAMP incorporation were calculated from % extension of the prime-template which was determined using ImageJ software. Relative rate of ddCMP addition on DNA/DNA and DNA/RNA. 25 nM nucleic acid DNA/DNA or DNA/RNA primer-template (RP559/RP702 or RP559/RP702R) was mixed with 1X reaction buffer (20 mM TrisHCl pH 7.5, 0.01% NP-40, 0.5 mM DTT, 10% glycerol, 0.1 mg/ml BSA, 10 mM MgCl2) in the presence of 250 μM ddCTP at room temp. Next, 2 μM RTx-161 or 2.5% DMSO was added. Reactions were initiated by the addition of 10 nM Polθ-pol. Reaction aliquots were removed and terminated by the addition of 50 mM EDTA at the indicated time points. Radio-labeled DNA was then resolved via denaturing 20% PAGE and visualized by Typhoon PhosphorImager. Percent primer extension by single ddCMP addition at each time point was calculated from % extension of the prime-template which was determined using ImageJ software.
# Polβ = molecular target: T2, Polβ (Homo sapiens, UniProt P06746); test: Primer extension by recombinant Pols (selectivity); format: biochemical
# T2 construct: gift: Dr. Wilson (NIEHS)
# Polθ-pol on DNA/DNA = molecular target: T3, Polθ-pol on DNA/DNA (Homo sapiens, UniProt O75417); test: Relative rate of ddCMP addition on DNA/DNA; format: biochemical; details: for Average % Extension (Single nt) / % Extension (Single nt): DNA template, 2uM RTX-161; for Average % Extension (Single nt): average of 3 trials; for % Extension (Single nt): single trials 1-3
# T3 construct: purified recombinant human Polθ-pol (comprising amino acid residues 1792–2590); made in house
# T3 sequence (O75417 1792-2590): T1 sequence (O75417 1792-2590)
# Procedure: as §1
# [1] = tested on: MMEJ reporter (EJ2-GFP) in U2OS cells; test: Chromosomal MMEJ GFP assay; format: cell-based; details: for % GFP/dsRED ratio, Combined mean: Combined EXP.1-3 (0 uM: 3.78889); for % GFP/dsRED ratio, mean per experiment: means of EXP.1, 2, 3 (0 uM: 4.4, 3.73333, 3.23333); for % GFP/dsRED ratio: single replicates of EXP.1-3
# Procedure: U2OS cells harboring the chromosomal (EJ2-GFP cassette) MMEJ reporter were plated and treated with various concentrations of RTX-161 for 16 h. Cells were co-transfected with either pCMV–3x- NLS-I-SceI or control vector pCMV-3x-NLS using Lipofectamine 2000 (Invitrogen) along with dsRED-Mito cDNA (control for transfection efficiency). GFP^+ frequencies were measured 3 days post transfection by FACS using Facscanto (Becton Dickinson) in triplicates and corrected for transfection efficiency and background events.
smiles,measurement,setting,value
CN(C(=O)Oc1ccc(C(F)(F)F)cc1C(F)(F)F)c1ccc(F)cc1 [MC160385],solubility,Solubility (2% DMSO/PBS),56 µM
same,effect on Km for dATP,Polθ-pol,slightly reducing
same,effect on Vmax of dAMP incorporation,Polθ-pol,significantly reduces
same,relative velocity of dAMP incorporation (avg),"Polθ-pol; 7.5 nM MC160385, dATP 20 uM",2.69 and 2.7
same,relative velocity of dAMP incorporation (avg),"Polθ-pol; 7.5 nM MC160385, dATP 50 uM",5.36 and 5.4
same,relative velocity of dAMP incorporation (avg),"Polθ-pol; 7.5 nM MC160385, dATP 100 uM",6.32 and 6.3
same,relative velocity of dAMP incorporation (avg),"Polθ-pol; 7.5 nM MC160385, dATP 200 uM",6.56 and 6.6
same,relative velocity of dAMP incorporation (avg),"Polθ-pol; 7.5 nM MC160385, dATP 300 uM",6.245 and 6.2
same,relative velocity of dAMP incorporation (avg),"Polθ-pol; 12 nM, dATP 20 uM",2.3
same,relative velocity of dAMP incorporation (avg),"Polθ-pol; 12 nM, dATP 50 uM",4.065
same,relative velocity of dAMP incorporation (avg),"Polθ-pol; 12 nM, dATP 50 uM, listed as MC160386",4.1
same,relative velocity of dAMP incorporation (avg),"Polθ-pol; 12 nM, dATP 100 uM",4.94
same,relative velocity of dAMP incorporation (avg),"Polθ-pol; 12 nM, dATP 100 uM, listed as MC160386",4.9
same,relative velocity of dAMP incorporation (avg),"Polθ-pol; 12 nM, dATP 200 uM",4.6
same,relative velocity of dAMP incorporation (avg),"Polθ-pol; 12 nM, dATP 300 uM",4.95
CN(C(=O)Oc1c(N2CCN(CCO)C2=O)cc(C(F)(F)F)cc1C(F)(F)F)c1ccc(F)cc1 [RTx-161],% Full Extension,Polβ; Pol Beta,84.31%
same,% Inhibition Compared to Control,Polβ; Pol Beta,-0.98%
same,% Relative Maximum Extension,Polβ; Pol Beta,100.98%
same,inhibition of primer extension,"Polβ; selectivity panel, Pol named in Supplementary Fig. 1h",no inhibition
same,inhibition of single nucleotide incorporation on DNA/DNA,"Polθ-pol on DNA/DNA; 2 μM RTx-161, closed conformation",significant inhibition
same,Average % Extension (Single nt),Polθ-pol on DNA/DNA; Time 0,0.00%
same,% Extension (Single nt),Polθ-pol on DNA/DNA; Time 0,0.00%
same,Average % Extension (Single nt),Polθ-pol on DNA/DNA; Time 0.5,11.29%
same,% Extension (Single nt),Polθ-pol on DNA/DNA; Time 0.5,12.34% and 11.73% and 9.81%
same,Average % Extension (Single nt),Polθ-pol on DNA/DNA; Time 1,18.42%
same,% Extension (Single nt),Polθ-pol on DNA/DNA; Time 1,20.67% and 19.99% and 14.59%
same,Average % Extension (Single nt),Polθ-pol on DNA/DNA; Time 2,25.83%
same,% Extension (Single nt),Polθ-pol on DNA/DNA; Time 2,27.74% and 29.45% and 20.29%
same,"% GFP/dsRED ratio, Combined mean",[1]; 5 uM,3.422%
same,"% GFP/dsRED ratio, mean per experiment",[1]; 5 uM,3.067% and 3.933% and 3.267%
same,% GFP/dsRED ratio,[1]; 5 uM,2.8% and 4% and 2.5% and 3.3% and 3.6% and 3.5% and 3.1% and 4.2% and 3.8%
same,"% GFP/dsRED ratio, Combined mean",[1]; 10 uM,3.378%
same,"% GFP/dsRED ratio, mean per experiment",[1]; 10 uM,3.067% and 3.8% and 3.267%
same,% GFP/dsRED ratio,[1]; 10 uM,2.9% and 3.3% and 2.6% and 3.2% and 3.9% and 3.4% and 3.1% and 4.2% and 3.8%
same,"% GFP/dsRED ratio, Combined mean",[1]; 15 uM,2.733%
same,"% GFP/dsRED ratio, mean per experiment",[1]; 15 uM,3.033% and 2.067% and 3.1%
same,% GFP/dsRED ratio,[1]; 15 uM,2.9% and 2.2% and 3.3% and 2.8% (2×) and 2.1% and 3.4% and 1.9% and 3.2%
same,cellular MMEJ (GFP reporter),[1]; 20 μM RTx-161,reduction in cellular MMEJ; also recorded: suppression of MMEJ
same,"% GFP/dsRED ratio, Combined mean",[1]; 20 uM,1.611%
same,"% GFP/dsRED ratio, mean per experiment",[1]; 20 uM,1.8% and 1.367% and 1.667%
same,% GFP/dsRED ratio,[1]; 20 uM,1.9% and 1.3% and 1.8% and 1.6% (2×) and 1.5% and 1.2% and 1.7%

# Source: paper PMC10997755, “Discovery of a small-molecule inhibitor that traps Polθ on DNA and synergizes with PARP inhibitors” (Nature Communications, 2024)
